Laboratory results: US4435387A, “Poly-cation salts of bis (or tris) 4-O-polyhexose-thio-arylene sulfate derivatives” (American Cyanamid Company, priority 1982, dated 1984)
Read-outs that look alike come from different tables or passages of the source.

Assays:
activated human C1 = target: T1, activated human C1 (Homo sapiens, UniProt P09871); test: Test Code 026 (C1 inhibitor); format: biochemical; conditions: in vitro; twofold serial dilution assay, higher well number indicates higher activity
T1 construct: fluid-phase C2 destruction with C4 present
T1 sequence (P09871 16-688): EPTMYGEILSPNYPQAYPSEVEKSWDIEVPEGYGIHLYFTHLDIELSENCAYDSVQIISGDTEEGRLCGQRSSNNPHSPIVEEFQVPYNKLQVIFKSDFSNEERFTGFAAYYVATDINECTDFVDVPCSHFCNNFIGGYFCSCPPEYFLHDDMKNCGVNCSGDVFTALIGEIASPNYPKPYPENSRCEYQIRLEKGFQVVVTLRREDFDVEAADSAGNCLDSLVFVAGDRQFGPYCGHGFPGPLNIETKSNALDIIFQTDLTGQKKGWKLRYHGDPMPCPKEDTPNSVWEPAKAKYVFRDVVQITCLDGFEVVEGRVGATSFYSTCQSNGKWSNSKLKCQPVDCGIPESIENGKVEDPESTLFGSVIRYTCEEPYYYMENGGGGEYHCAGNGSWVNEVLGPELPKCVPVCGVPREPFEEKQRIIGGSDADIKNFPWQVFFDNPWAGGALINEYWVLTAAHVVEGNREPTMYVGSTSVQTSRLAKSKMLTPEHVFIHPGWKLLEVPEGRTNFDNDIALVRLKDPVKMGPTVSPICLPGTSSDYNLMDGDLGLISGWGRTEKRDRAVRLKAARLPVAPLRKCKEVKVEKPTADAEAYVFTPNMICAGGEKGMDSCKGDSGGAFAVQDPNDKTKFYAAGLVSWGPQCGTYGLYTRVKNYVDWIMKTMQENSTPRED
T1 sequence (P00736 18-705 partner): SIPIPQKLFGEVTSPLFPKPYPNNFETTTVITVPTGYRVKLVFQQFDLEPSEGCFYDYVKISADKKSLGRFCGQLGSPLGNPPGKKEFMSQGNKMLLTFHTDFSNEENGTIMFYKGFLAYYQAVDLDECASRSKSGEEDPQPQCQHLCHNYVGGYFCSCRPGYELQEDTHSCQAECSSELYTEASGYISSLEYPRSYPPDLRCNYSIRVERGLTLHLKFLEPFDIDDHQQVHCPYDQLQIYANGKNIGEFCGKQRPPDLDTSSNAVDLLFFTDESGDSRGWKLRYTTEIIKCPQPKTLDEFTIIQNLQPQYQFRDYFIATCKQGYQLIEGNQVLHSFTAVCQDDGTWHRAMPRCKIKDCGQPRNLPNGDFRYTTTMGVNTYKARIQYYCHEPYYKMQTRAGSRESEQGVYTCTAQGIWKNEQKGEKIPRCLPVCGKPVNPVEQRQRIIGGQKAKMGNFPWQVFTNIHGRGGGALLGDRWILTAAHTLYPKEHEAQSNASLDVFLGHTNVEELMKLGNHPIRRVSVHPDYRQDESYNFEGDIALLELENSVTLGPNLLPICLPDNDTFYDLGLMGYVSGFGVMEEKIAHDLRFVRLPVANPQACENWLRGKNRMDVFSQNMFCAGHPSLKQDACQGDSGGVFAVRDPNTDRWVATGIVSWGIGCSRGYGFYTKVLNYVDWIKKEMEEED
T1 sequence (P02745 23-245 partner): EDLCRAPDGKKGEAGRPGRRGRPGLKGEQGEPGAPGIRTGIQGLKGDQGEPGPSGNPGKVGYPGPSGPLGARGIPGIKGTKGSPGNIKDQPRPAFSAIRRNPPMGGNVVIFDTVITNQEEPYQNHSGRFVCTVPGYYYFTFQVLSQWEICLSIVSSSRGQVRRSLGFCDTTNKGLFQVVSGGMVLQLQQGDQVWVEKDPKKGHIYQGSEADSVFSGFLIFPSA
T1 sequence (P02746 28-253 partner): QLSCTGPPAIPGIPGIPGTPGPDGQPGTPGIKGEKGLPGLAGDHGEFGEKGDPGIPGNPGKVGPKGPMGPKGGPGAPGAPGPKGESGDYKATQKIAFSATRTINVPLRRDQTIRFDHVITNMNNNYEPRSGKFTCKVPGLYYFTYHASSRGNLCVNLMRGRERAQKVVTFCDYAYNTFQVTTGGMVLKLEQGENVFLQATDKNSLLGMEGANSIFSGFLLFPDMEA
T1 sequence (P02747 29-245 partner): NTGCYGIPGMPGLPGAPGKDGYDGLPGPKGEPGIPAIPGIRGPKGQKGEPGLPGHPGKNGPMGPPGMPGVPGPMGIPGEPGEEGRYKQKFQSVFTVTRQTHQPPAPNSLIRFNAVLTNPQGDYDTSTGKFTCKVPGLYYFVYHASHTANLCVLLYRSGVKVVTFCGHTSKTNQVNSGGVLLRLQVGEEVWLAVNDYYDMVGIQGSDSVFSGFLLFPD
Procedure: (§1) Percent inhibition is calculated by comparison with simultaneous controls.
(§2) **Activity in wells, a serial dilution assay; higher well number indicate
(§3) higher activity. The serial dilutions are twofold.

[1] = test system: late components of human complement (C3-C9); test: Test Code 035 (C3-C9 inhibitor), lysis of EAC 142; format: biochemical; conditions: in vitro; twofold serial dilution assay, higher well number indicates higher activity
Procedure: as §1, §2, §3

[2] = test system: complement activity of guinea pig sera; test: Guinea Pig Intraperitoneal Test (GPIP); format: in vivo; conditions: Cavia porcellus, ip, 200 mg/kg i.p.
Procedure: as §1

[3] = test system: hereditary angioneurotic edema; conditions: literature reports; cited from earlier work
[4] = test system: human serum total hemolytic complement activity; conditions: in vitro and in vivo, judged by reduction in total hemolytic complement activity; Pathol. Biol. 25 (1977); cited from earlier work

| Compound | C-1 026 Wells (activated human C1) | C-Late 035 Wells [1] | other results |
| --- | --- | --- | --- |
| O=C(Nc1ccc(S[C@@H]2O[C@H](COS(=O)(=O)O)[C@@H](O[C@H]3O[C@H](COS(=O)(=O)O)[C@@H](OS(=O)(=O)O)[C@H](OS(=O)(=O)O)[C@H]3OS(=O)(=O)O)[C@H](OS(=O)(=O)O)[C@H]2OS(=O)(=O)O)cc1)c1cc(C(=O)Nc2ccc(S[C@@H]3O[C@H](COS(=O)(=O)O)[C@@H](O[C@H]4O[C@H](COS(=O)(=O)O)[C@@H](OS(=O)(=O)O)[C@H](OS(=O)(=O)O)[C@H]4OS(=O)(=O)O)[C@H](OS(=O)(=O)O)[C@H]3OS(=O)(=O)O)cc2)cc(C(=O)Nc2ccc(S[C@@H]3O[C@H](COS(=O)(=O)O)[C@@H](O[C@H]4O[C@H](COS(=O)(=O)O)[C@@H](OS(=O)(=O)O)[C@H](OS(=O)(=O)O)[C@H]4OS(=O)(=O)O)[C@H](OS(=O)(=O)O)[C@H]3OS(=O)(=O)O)cc2)c1.[Na].[Na].[Na].[Na].[Na].[Na].[Na].[Na].[Na].[Na].[Na].[Na].[Na].[Na].[Na].[Na].[Na].[Na].[Na].[Na].[Na] [Heneicosasodium N,N',N"-tris[4-[[2,3,6-tri-O-sulfo-4-O-(2,3,4,6-tetra-O-sulfo-α-D-glucopyranosyl)-β-D-glucopyranosyl]thio]phenyl]-1,3,5-benzenetricarboxamide] | 8 Wells | 2 Wells |  |
| O=S(=O)(O)OC[C@H]1O[C@@H](Sc2ccc(NS(=O)(=O)c3cc(S(=O)(=O)Nc4ccc(S[C@@H]5O[C@H](COS(=O)(=O)O)[C@@H](O[C@H]6O[C@H](COS(=O)(=O)O)[C@@H](OS(=O)(=O)O)[C@H](OS(=O)(=O)O)[C@H]6OS(=O)(=O)O)[C@H](OS(=O)(=O)O)[C@H]5OS(=O)(=O)O)cc4)cc(S(=O)(=O)Nc4ccc(S[C@@H]5O[C@H](COS(=O)(=O)O)[C@@H](O[C@H]6O[C@H](COS(=O)(=O)O)[C@@H](OS(=O)(=O)O)[C@H](OS(=O)(=O)O)[C@H]6OS(=O)(=O)O)[C@H](OS(=O)(=O)O)[C@H]5OS(=O)(=O)O)cc4)c3)cc2)[C@H](OS(=O)(=O)O)[C@@H](OS(=O)(=O)O)[C@@H]1O[C@H]1O[C@H](COS(=O)(=O)O)[C@@H](OS(=O)(=O)O)[C@H](OS(=O)(=O)O)[C@H]1OS(=O)(=O)O.[Na].[Na].[Na].[Na].[Na].[Na].[Na].[Na].[Na].[Na].[Na].[Na].[Na].[Na].[Na].[Na].[Na].[Na].[Na].[Na].[Na] [Heneicosasodium N,N',N"-tris[4-[[2,3,6-tri-O-sulfo-4-O-(2,3,4,6-tetra-O-sulfo-α-D-glucopyranosyl)-β-D-glucopyranosyl]thio]phenyl]-1,3,5-benzenetrisulfonamide] | 9 Wells | 3 Wells |  |
| O=S(=O)(O)OC[C@H]1O[C@@H](Sc2ccc(NS(=O)(=O)c3cc(S(=O)(=O)Nc4ccc(S[C@@H]5O[C@H](COS(=O)(=O)O)[C@@H](O[C@@H]6O[C@H](COS(=O)(=O)O)[C@@H](OS(=O)(=O)O)[C@H](OS(=O)(=O)O)[C@H]6OS(=O)(=O)O)[C@H](OS(=O)(=O)O)[C@H]5OS(=O)(=O)O)cc4)cc(S(=O)(=O)Nc4ccc(S[C@@H]5O[C@H](COS(=O)(=O)O)[C@@H](O[C@@H]6O[C@H](COS(=O)(=O)O)[C@@H](OS(=O)(=O)O)[C@H](OS(=O)(=O)O)[C@H]6OS(=O)(=O)O)[C@H](OS(=O)(=O)O)[C@H]5OS(=O)(=O)O)cc4)c3)cc2)[C@H](OS(=O)(=O)O)[C@@H](OS(=O)(=O)O)[C@@H]1O[C@@H]1O[C@H](COS(=O)(=O)O)[C@@H](OS(=O)(=O)O)[C@H](OS(=O)(=O)O)[C@H]1OS(=O)(=O)O.[Na].[Na].[Na].[Na].[Na].[Na].[Na].[Na].[Na].[Na].[Na].[Na].[Na].[Na].[Na].[Na].[Na].[Na].[Na].[Na].[Na] [Heneicosasodium N,N',N"-tris[4-[[2,3,6-tri-O-sulfo-4-O-(2,3,4,6-tetra-O-sulfo-β-D-glucopyranosyl)-β-D-glucopyranosyl]thio]phenyl]-1,3,5-benzenetrisulfonamide] | 12 Wells | 3 Wells |  |
| O=C(Nc1ccc(S[C@@H]2O[C@H](COS(=O)(=O)O)[C@@H](O[C@H]3O[C@H](COS(=O)(=O)O)[C@@H](OS(=O)(=O)O)[C@H](OS(=O)(=O)O)[C@H]3OS(=O)(=O)O)[C@H](OS(=O)(=O)O)[C@H]2OS(=O)(=O)O)cc1)c1ccc(C(=O)Nc2ccc(S[C@@H]3O[C@H](COS(=O)(=O)O)[C@@H](O[C@H]4O[C@H](COS(=O)(=O)O)[C@@H](OS(=O)(=O)O)[C@H](OS(=O)(=O)O)[C@H]4OS(=O)(=O)O)[C@H](OS(=O)(=O)O)[C@H]3OS(=O)(=O)O)cc2)cc1.[Na].[Na].[Na].[Na].[Na].[Na].[Na].[Na].[Na].[Na].[Na].[Na].[Na].[Na] [Tetradecasodium N,N'-bis[4-[[2,3,6-tri-O-sulfo-4-O-(2,3,4,6-tetra-O-sulfo-α-D-glucopyranosyl)-β-D-glucopyranosyl]thio]phenyl]-1,4-benzenedicarboxamide] | 9 Wells | 2 Wells | inhibition at 200 mg/kg ([2]; serum complement 2 hours after injection, read-out: In vivo Activity (Guinea Pig % Inhibition) Intraperitoneal, 2 hours): 87%; inhibition at 200 mg/kg ([2]; serum complement 6 hours after injection, read-out: In vivo Activity (Guinea Pig % Inhibition) Intraperitoneal, 6 hours): 90%; inhibition at 200 mg/kg ([2]; serum complement 24 hours after injection, read-out: In vivo Activity (Guinea Pig % Inhibition) Intraperitoneal, 24 hours): 62% |
| NCCCCCC(=O)O [epsilon-aminocaproic acid] |  |  | treatment of hereditary angioneurotic edema [3]: used with success |
| NC[C@H]1CC[C@H](C(=O)O)CC1 [tranexamic acid] |  |  | treatment of hereditary angioneurotic edema [3]: used with success |
| pentosan-polysulfoester |  |  | anticomplementary activity on human serum [4]: anticomplementary activity |
